Data published in PubChem BioAssay AID1918936 (Molecular Pharmacology Branch, DTP, NCI, 2023).
Values joined by “and” are separate entries in the source; they are usually repeats but may differ in a detail not shown here. Equal values may be shown once.

Test system: 349418-098-R-PDC complex spheroid viability
Assay: Anticancer human tumor 349418-098-R-PDC patient-derived lung adenocarcinoma cell line growth inhibition
Settings: for viability, T/C: stronger effect = lower value
Method in brief: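 Complex spheroids of tumor cells with HUVEC and human MSCs, exposed to iadademstat combined with other agents. Each agent tested in half-log steps from near clinical Cmax (else 10 microM top), DMSO ≤0.25%.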

[1] = curve of first compound, second compound 0.1 µM
[2] = curve of first compound, second compound 0.316 µM
[3] = curve of first compound, second compound 1 µM
[4] = curve of first compound, second compound 3.16 µM
[5] = curve of first compound, second compound 10 µM
[6] = second compound 0.1 µM, first compound 0.00949 µM
[7] = second compound 0.1 µM, first compound 0.03 µM
[8] = second compound 0.1 µM, first compound 0.0949 µM
[9] = second compound 0.1 µM, first compound 0.3 µM
[10] = second compound 0.1 µM, first compound 0.949 µM
[11] = second compound 0.1 µM, first compound 3 µM
[12] = second compound 0.316 µM, first compound 0.00949 µM
[13] = second compound 0.316 µM, first compound 0.03 µM
[14] = second compound 0.316 µM, first compound 0.0949 µM
[15] = second compound 0.316 µM, first compound 0.3 µM
[16] = second compound 0.316 µM, first compound 0.949 µM
[17] = second compound 0.316 µM, first compound 3 µM
[18] = second compound 1 µM, first compound 0.00949 µM
[19] = second compound 1 µM, first compound 0.03 µM
[20] = second compound 1 µM, first compound 0.0949 µM
[21] = second compound 1 µM, first compound 0.3 µM
[22] = second compound 1 µM, first compound 0.949 µM
[23] = second compound 1 µM, first compound 3 µM
[24] = second compound 3.16 µM, first compound 0.00949 µM
[25] = second compound 3.16 µM, first compound 0.03 µM
[26] = second compound 3.16 µM, first compound 0.0949 µM
[27] = second compound 3.16 µM, first compound 0.3 µM
[28] = second compound 3.16 µM, first compound 0.949 µM
[29] = second compound 3.16 µM, first compound 3 µM
[30] = second compound 10 µM, first compound 0.00949 µM
[31] = second compound 10 µM, first compound 0.03 µM
[32] = second compound 10 µM, first compound 0.0949 µM
[33] = second compound 10 µM, first compound 0.3 µM
[34] = second compound 10 µM, first compound 0.949 µM
[35] = second compound 10 µM, first compound 3 µM
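Also: spheroids exposed to agents for seven days before readout.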
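For viability, T/C in this document: 100% = DMSO vehicle control wells.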

Nc1ccccc1NC(=O)c1ccc(CNC(=O)OCc2cccnc2)cc1 + NC1CC1c1ccc(-c2cccc(O)c2)cc1
IC50 [1]: 0.0837 µM | IC50 [2]: 0.102 µM | IC50 [3]: 0.121 µM | IC50 [4]: 0.145 µM | IC50 [5]: 0.136 µM | viability, T/C [6]: 94% | viability, T/C [7]: 68.2% | viability, T/C [8]: 53.2% | viability, T/C [9]: 20.4% | viability, T/C [10]: 6.54% | viability, T/C [11]: 3.26% | viability, T/C [12]: 102% | viability, T/C [13]: 84.8% | viability, T/C [14]: 53.8% | viability, T/C [15]: 17.8% | viability, T/C [16]: 6.05% | viability, T/C [17]: 3.43% | viability, T/C [18]: 106% | viability, T/C [19]: 83.1% | viability, T/C [20]: 61.2% | viability, T/C [21]: 22.6% | viability, T/C [22]: 6.06% | viability, T/C [23]: 3.46% | viability, T/C [24]: 102% | viability, T/C [25]: 84.4% | viability, T/C [26]: 67.9% | viability, T/C [27]: 23.9% | viability, T/C [28]: 6.45% | viability, T/C [29]: 2.77% | viability, T/C [30]: 93.3% | viability, T/C [31]: 81.7% | viability, T/C [32]: 64.3% | viability, T/C [33]: 21.7% | viability, T/C [34]: 5.86% | viability, T/C [35]: 2.77%

CC1(C)CCC(CN2CCN(c3ccc(C(=O)NS(=O)(=O)c4ccc(NCC5CCOCC5)c([N+](=O)[O-])c4)c(Oc4cnc5[nH]ccc5c4)c3)CC2)=C(c2ccc(Cl)cc2)C1
viability, T/C (compound 0.0316 µM): 98.4% and 106% | viability, T/C (compound 0.1 µM): 88.2% and 103% | viability, T/C (compound 0.316 µM): 95.9% and 91.1% | viability, T/C (compound 1 µM): 84.3% and 68.4% | viability, T/C (compound 3.16 µM): 67.7% and 24.9% | viability, T/C (compound 10 µM): 13.5% and 0.24% | IC50 (curve of compound): 4.56 µM and 1.6 µM

COc1cc(C2c3cc4c(cc3C(OC3OC5COC(C)OC5C(O)C3O)C3COC(=O)C23)OCO4)cc(OC)c1O (configuration not stated) + NC1CCC(NC2CC2c2ccccc2)CC1
IC50 [1]: 0.0795 µM | IC50 [2]: 0.0899 µM | IC50 [3]: 0.0865 µM | IC50 [4]: 0.0858 µM | IC50 [5]: 0.0571 µM | viability, T/C [6]: 105% | viability, T/C [7]: 83.1% | viability, T/C [8]: 44.7% | viability, T/C [9]: 14.6% | viability, T/C [10]: 6.37% | viability, T/C [11]: 4.96% | viability, T/C [12]: 91.9% | viability, T/C [13]: 100% | viability, T/C [14]: 47.7% | viability, T/C [15]: 15.1% | viability, T/C [16]: 6.33% | viability, T/C [17]: 5.43% | viability, T/C [18]: 108% | viability, T/C [19]: 91.5% | viability, T/C [20]: 45.6% | viability, T/C [21]: 16% | viability, T/C [22]: 6.74% | viability, T/C [23]: 5.14% | viability, T/C [24]: 106% | viability, T/C [25]: 86.4% | viability, T/C [26]: 47.6% | viability, T/C [27]: 14.2% | viability, T/C [28]: 6.91% | viability, T/C [29]: 5.13% | viability, T/C [30]: 89.6% | viability, T/C [31]: 67% | viability, T/C [32]: 37.2% | viability, T/C [33]: 13.8% | viability, T/C [34]: 6.9% | viability, T/C [35]: 5.24%
